According to US7652015B2, “Kinase inhibitors” (Eli Lilly and Company, priority 2006, dated 2010):
Counter-ions that a name gives are not always drawn.

test system: p-MAPKAPK2; test: Inhibition of p-MAPKAPK2 in vitro, anisomycin-stimulated RAW 264.7 cells, ELISA; assay type: cell-based, murine; conditions: Mus musculus, RAW264.7; RAW 264.7 cells, 2 hours compound, anisomicin 100 ug/ml 30 minutes; read-out: IC50, inhibition of p-MAPKAPK2 in vitro
Experimental: RAW 264.7 cells (a murine monocytic/macrophage line ATCC) are seeded at a density of 50,000 cells/well in 96-well plates with RPMI-1640 medium plus 10% fetal bovine serum (FBS) and allowed to settle and adhere to the bottom of the well for 48 hours. After reaching confluence, cells are treated for 2 hours with 10 serial dilutions of different compounds. A control compound is always included. After 2 hours, anisomicin (100 ug/ml) is added and cells are incubated for 30 minutes at 37° C. under a 5% CO2 atmosphere. Then, cells are fixed and treated with hydrogen peroxide in order to remove endogenous peroxidase. Finally, plates are blocked with FBS, washed, and an ELISA assay is carried out by using an antiphospho-MAPKAPK (Thr 334, Cell Signalling, Cat # 3041) antibody and ahP-Conjugated Secondary Antibody. This reaction is detected by using FEMTO (Pierce) which is an enhanced chemiluminiscent substrate ahP that results in rapid kinetic light output and high signal intensity.

SMILES	IC50 [nM]
Cc1ccc(-n2nc(C(C)(C)C)cc2NC(=O)Nc2ccc(OC3CCN(C(=O)C4(C)CC4)CC3)nc2C)cc1 [Example 77, 1-(5-tert-Butyl-2-p-tolyl-2H-pyrazol-3-yl)-3-{2-methyl-6-[1-(1-methyl-cyclopropanecarbonyl)-piperidin-4-yloxy]-pyridin-3-yl}-urea]	176
Cc1ccc(-n2nc(C(C)(C)C)cc2NC(=O)Nc2ccc(N3CCN(C(=O)c4c(Cl)cccc4Cl)CC3)nc2C)cc1 [Example 45, 1-(5-tert-Butyl-2-p-tolyl-2H-pyrazol-3-yl)-3-{6-[4-(2,6-dichloro-benzoyl)-piperazin-1-yl]-2-methyl-pyridin-3-yl}-urea methanesulfonate]	6.7
Cc1ccc(-n2nc(C(C)(C)C)cc2NC(=O)Nc2ccc(OC3CCN(C(=O)c4ccc(Cl)s4)CC3)nc2)cc1 [Example 92, 1-(5-tert-Butyl-2-p-tolyl-2H-pyrazol-3-yl)-3-{6-[1-(5-chloro-thiophene-2-carbonyl)-piperidin-4-yloxy]-pyridin-3-yl}-urea]	16
Cc1ccc(-n2nc(C(C)(C)C)cc2NC(=O)Nc2cnc(N3CCN(C(=O)C4(C)CC4)CC3)cc2C)cc1 [Example 128, 1-(5-tert-Butyl-2-p-tolyl-2H-pyrazol-3-yl)-3-{4-methyl-6-[4-(1-methyl-cyclopropanecarbonyl)-piperazin-1-yl]-pyridin-3-yl}-urea mesylate]	286

test system: p-MAPKAPK2; test: as above; assay type: cell-based, murine; conditions: Mus musculus, RAW264.7, in the presence of 100% serum

SMILES	IC50 [nM]
Cc1ccc(-n2nc(C3(C(F)(F)F)CC3)cc2NC(=O)Nc2ccc(N3CCN(C(=O)c4ccccc4Cl)CC3)nc2C)cn1 [Example 114, 1-{6-[4-(2-Chloro-benzoyl)-piperazin-1-yl]-2-methyl-pyridin-3-yl}-3-[2-(6-methyl-pyridin-3-yl)-5-(1-trifluoromethyl-cyclopropyl)-2H-pyrazol-3-yl]-urea mesylate]	≤ 500
Cc1ccc(-n2nc(C(C)(CF)CF)cc2NC(=O)Nc2ccc(N3CCN(C(=O)c4ccccc4C)CC3)nc2C)cc1 [Example 119, 1-[5-(2-Fluoro-1-fluoromethyl-1-methyl-ethyl)-2-p-tolyl-2H-pyrazol-3-yl]-3-{2-methyl-6-[4-(2-methyl-benzoyl)-piperazin-1-yl]-pyridin-3-yl}-urea]	≤ 500
Cc1ccc(-n2nc(C3(C(F)(F)F)CC3)cc2NC(=O)Nc2ccc(N3CCN(C(=O)c4sccc4C)CC3)nc2C)cn1 [Example 113, 1-{2-Methyl-6-[4-(3-methyl-thiophene-2-carbonyl)-piperazin-1-yl]-pyridin-3-yl}-3-[2-(6-methyl-pyridin-3-yl)-5-(1-trifluoromethyl-cyclopropyl)-2H-pyrazol-3-yl]-urea mesylate]	≤ 500
Cc1ccc(-n2nc(C(C)(C)C)cc2NC(=O)Nc2ccc(N3CCN(C(=O)c4ccccc4Cl)CC3)nc2C)cn1 [Example 111, 1-[5-tert-Butyl-2-(6-methyl-pyridin-3-yl)-2H-pyrazol-3-yl]-3-{6-[4-(2-chloro-benzoyl)-piperazin-1-yl]-2-methyl-pyridin-3-yl}-urea mesylate]	≤ 500
Cc1ccc(-n2nc(C3(C(F)(F)F)CC3)cc2NC(=O)Nc2ccc(N3CCN(C(=O)c4ccccc4F)CC3)nc2C)cn1 [Example 115, 1-{6-[4-(2-Fluoro-benzoyl)-piperazin-1-yl]-2-methyl-pyridin-3-yl}-3-[2-(6-methyl-pyridin-3-yl)-5-(1-trifluoromethyl-cyclopropyl)-2H-pyrazol-3-yl]-urea mesylate]	≤ 500
